Test results reported in publication PMC8915576 (Frontiers in Pain Research, 2021).
Read-outs that look alike come from different tables or passages of the source.

How the values were obtained:
[1] = system: MOPr-VACC inhibition in dorsal root ganglia (DRG) neurons; test: cells; format: cell-based, mouse; conditions: for IC50: read-out: IC50, VACC inhibition; for Emax: read-out: Emax (% inhibition), VACC inhibition
[2] = molecular target: MOPr (mMOR-Venus) / Gαi-luciferase (Mus musculus, UniProt P42866); test: cell-based; format: cell-based
[3] = molecular target: MOPr (mMOR-Venus) / βarr2-luciferase (Mus musculus, UniProt P42866); test: cell-based
[4] = molecular target: MOPr (mMOR-Venus) / βarr1-luciferase (Mus musculus, UniProt P42866); test: cell-based; format: cell-based
[5] = molecular target: T1, MOPr (Mus musculus, UniProt P42866); format: cell-based
T1 construct: expressed in transfected cells; host or cells: HEK293

[6] = molecular target: FAP-tagged MOPr in HEK cells (Homo sapiens, UniProt P35372); test: cell-based; format: cell-based; conditions: for Emax: Emax (% background), internalization
[7] = system: MOPr-VACC inhibition in DRG neurons; format: cell-based, mouse
[8] = system: VACCs in DRG neurons; test: Voltage-dependent component of agonist-VACC inhibition (high-voltage pre-pulse); format: cell-based, mouse; conditions: normalized to each agonist's inhibition
[9] = molecular target: T2, MOR (recombinant human receptor) (Homo sapiens, UniProt P35372); format: binding; conditions: calculated as t1/2 = 0.69/koff
T2 construct: host or cells: CHO-K1 membranes

[10] = system: VACCs in DRG neurons lacking βarr1; test: VACC inhibition in DRG neurons of βarr1-knockout mice; format: cell-based, mouse; conditions: βarr1-knockout vs WT DRG neurons; NKTR-181 30 μM
[11] = system: carrageenan-induced thermal hyperalgesia; test: Thermal withdrawal thresholds (Hargreaves) after i.pl. carrageenan; format: in vivo, mouse
[12] = system: thermal nociception; test: Thermal withdrawal thresholds (Hargreaves) after i.pl. vehicle; format: in vivo, mouse; conditions: 3 mg/kg i.pl., mice
[13] = system: drug preference; test: Conditioned place preference in pain-naive mice; format: in vivo, mouse
[14] = system: carrageenan-induced place aversion; test: Carrageenan-induced conditioned place aversion; format: in vivo, mouse; conditions: 1 mg/kg i.pl., male mice
[15] = system: drug-seeking behavior; test: Intravenous self-administration (IVSA), FR10 schedule; format: in vivo, Sprague–Dawley rats; conditions: for number of reinforcers obtained vs saline: FR10, rats
[16] = molecular target: Mu opioid receptor (MOPr) of the competitive binding assays (UniProt P42866)
[17] = molecular target: T3, mMOR-Venus (mu opioid receptor, Venus-tagged) (mouse (from the label mMOR), UniProt P42866 1-398); test: FRET or BRET; live HEK293 cells co-transfected with mMOR-Venus (acceptor) and Renilla Luciferase8-tagged β-arrestin-1, β-arrestin-2 or Gαi (donor; Gαi with untagged Gβγ fusion); agonist added at 0 nM-100 μM (DAMGO, NKTR-181, oxycodone, morphine, fentanyl); coelenterazine h 4.5 μM; 30°C; netBRET as percent of the maximum DAMGO response, four-parameter fit; conditions: partners not purified
T3 construct: mu opioid receptor (MOPr), printed as mMOR; BRET acceptor; 'm' in mMOR is read as mouse; also called MOPr-venus; MOPr; source: HEK293, transfected (FuGENE 6), in live cells
T3 sequence (P42866 whole entry, the tested form may be a part): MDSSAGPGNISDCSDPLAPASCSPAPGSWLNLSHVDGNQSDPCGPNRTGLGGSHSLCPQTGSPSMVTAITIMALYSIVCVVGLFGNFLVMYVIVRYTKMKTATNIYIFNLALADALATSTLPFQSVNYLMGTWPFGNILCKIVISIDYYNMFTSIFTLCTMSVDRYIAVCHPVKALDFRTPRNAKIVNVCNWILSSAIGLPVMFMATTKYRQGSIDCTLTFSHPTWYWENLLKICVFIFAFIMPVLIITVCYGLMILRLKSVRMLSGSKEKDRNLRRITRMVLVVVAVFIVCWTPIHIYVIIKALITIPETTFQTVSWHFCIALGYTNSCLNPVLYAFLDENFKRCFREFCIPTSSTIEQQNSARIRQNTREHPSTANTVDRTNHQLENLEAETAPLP

Sequence of MOPr (mMOR-Venus) / βarr2-luciferase (P32121 whole entry): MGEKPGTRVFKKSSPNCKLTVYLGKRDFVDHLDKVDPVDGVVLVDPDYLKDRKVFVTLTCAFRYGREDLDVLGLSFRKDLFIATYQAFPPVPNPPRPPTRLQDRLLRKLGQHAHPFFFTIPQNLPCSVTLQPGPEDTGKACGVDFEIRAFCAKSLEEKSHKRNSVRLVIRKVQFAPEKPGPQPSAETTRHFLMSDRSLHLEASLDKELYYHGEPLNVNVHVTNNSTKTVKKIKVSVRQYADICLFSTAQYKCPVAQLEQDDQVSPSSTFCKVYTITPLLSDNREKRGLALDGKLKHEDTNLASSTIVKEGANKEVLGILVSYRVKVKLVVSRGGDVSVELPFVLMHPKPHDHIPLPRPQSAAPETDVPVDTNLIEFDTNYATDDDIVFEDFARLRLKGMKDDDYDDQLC
Sequence of MOPr (mMOR-Venus) / βarr2-luciferase (P42866 whole entry): as the sequence (P42866 whole entry, the tested form may be a part) above
Sequence of FAP-tagged MOPr in HEK cells (P35372 whole entry): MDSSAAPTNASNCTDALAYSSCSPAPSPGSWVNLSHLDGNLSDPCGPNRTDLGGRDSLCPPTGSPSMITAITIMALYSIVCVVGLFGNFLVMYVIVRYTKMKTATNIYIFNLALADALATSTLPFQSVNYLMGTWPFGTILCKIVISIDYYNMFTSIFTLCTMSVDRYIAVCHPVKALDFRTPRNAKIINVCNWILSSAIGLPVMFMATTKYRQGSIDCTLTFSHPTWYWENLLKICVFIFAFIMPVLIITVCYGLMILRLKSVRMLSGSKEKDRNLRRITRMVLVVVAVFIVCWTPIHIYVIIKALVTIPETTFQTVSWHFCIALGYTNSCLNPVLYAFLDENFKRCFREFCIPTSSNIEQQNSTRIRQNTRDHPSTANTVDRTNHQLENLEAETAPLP
T1 sequence (P42866 whole entry): as the sequence (P42866 whole entry, the tested form may be a part) above
Sequence of MOPr (mMOR-Venus) / βarr1-luciferase (P42866 whole entry, one chain of several): as the sequence (P42866 whole entry, the tested form may be a part) above
Sequence of MOPr (mMOR-Venus) / Gαi-luciferase (P63096 whole entry): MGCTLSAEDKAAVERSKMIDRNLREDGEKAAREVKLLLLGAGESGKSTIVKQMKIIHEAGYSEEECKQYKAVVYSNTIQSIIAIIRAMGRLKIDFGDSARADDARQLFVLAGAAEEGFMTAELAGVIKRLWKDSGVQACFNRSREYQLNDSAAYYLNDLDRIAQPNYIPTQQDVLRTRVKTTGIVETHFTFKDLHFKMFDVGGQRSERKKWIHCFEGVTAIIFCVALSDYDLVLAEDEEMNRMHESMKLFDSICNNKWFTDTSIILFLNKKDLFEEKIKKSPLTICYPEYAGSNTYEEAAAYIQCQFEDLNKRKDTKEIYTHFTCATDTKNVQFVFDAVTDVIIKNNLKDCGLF
Sequence of MOPr (mMOR-Venus) / Gαi-luciferase (P42866 whole entry): as the sequence (P42866 whole entry, the tested form may be a part) above
Sequence of MOPr (mMOR-Venus) / Gαi-luciferase (P59768 whole entry, further chain): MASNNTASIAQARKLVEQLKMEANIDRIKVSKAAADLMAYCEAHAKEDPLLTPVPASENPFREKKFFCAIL
Sequence of MOPr (mMOR-Venus) / Gαi-luciferase (P62873 whole entry, further chain): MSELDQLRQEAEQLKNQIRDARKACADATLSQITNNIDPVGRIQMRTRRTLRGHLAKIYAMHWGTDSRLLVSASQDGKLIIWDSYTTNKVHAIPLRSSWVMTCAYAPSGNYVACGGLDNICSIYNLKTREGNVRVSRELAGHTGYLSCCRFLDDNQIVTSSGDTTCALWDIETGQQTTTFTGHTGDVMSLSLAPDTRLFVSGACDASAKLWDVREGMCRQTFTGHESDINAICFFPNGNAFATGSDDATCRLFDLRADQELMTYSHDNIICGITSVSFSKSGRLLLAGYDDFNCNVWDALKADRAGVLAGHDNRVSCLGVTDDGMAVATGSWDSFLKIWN
Sequence of Mu opioid receptor (MOPr) of the competitive binding assays (P42866 whole entry, the tested form may be a part): as the sequence (P42866 whole entry, the tested form may be a part) above
T2 sequence (P35372 whole entry): as the sequence (P35372 whole entry) above

C[C@@H](NC(=O)[C@@H](N)Cc1ccc(O)cc1)C(=O)NCC(=O)N(C)[C@@H](Cc1ccccc1)C(=O)NCCO [DAMGO, [D-Ala^2, N-MePhe^4, Gly-ol]-enkephalin]
Emax (% inhibition), VACC inhibition [1]: 41 ± 4 % inhibition | IC50 [1]: 228 nM | σ (transduction coefficient), Gαi recruitment [2]: 0 | σ (transduction coefficient), β-arr2 recruitment [3]: 0 | σ (transduction coefficient), β-arr1 recruitment [4]: 0 | Bias factor Gαi vs βarr1 [5]: Unbiased | Bias factor Gαi vs βarr2 [5]: Unbiased | Bias factor βarr1 vs βarr2 [5]: Unbiased | Emax ([6]; HEK293, read-out: 30 min): 78 ± 6% | Emax ([6]; HEK293, read-out: 60 min): 72 ± 7% | rapid desensitization (loss of VACC inhibition) [7]: greater desensitization than NKTR-181 | voltage-dependent component of VACC inhibition [8]: predominantly inhibit VACCs by a voltage-dependent mechanism

CN1CC[C@]23c4c5ccc(O)c4O[C@H]2[C@@H](O)C=C[C@H]3[C@H]1C5 [Morphine, morphine]
Emax ([1]; Mus musculus, DRG neuron): 33 ± 6% | rapid desensitization (loss of VACC inhibition) [7]: greater desensitization than NKTR-181 | voltage-dependent component of VACC inhibition [8]: predominantly inhibit VACCs by a voltage-dependent mechanism

COc1ccc2c3c1O[C@H]1C(=O)CC[C@@]4(O)[C@@H](C2)N(C)CC[C@]314 [Oxycodone, oxycodone]
Emax ([1]; Mus musculus, DRG neuron): 34 ± 10% | IC50 ([1]; Mus musculus, DRG neuron): 1700 nM | EC50 [2]: 355 nM | σ (transduction coefficient), Gαi recruitment [2]: 0.006 ± 0.07 | Emax ([2]; HEK293, read-out: Emax, Gαi recruitment): 62.5 ± 0.9% | EC50 [3]: 100 nM | σ (transduction coefficient), β-arr2 recruitment [3]: −0.17 ± 0.05 | EC50 [4]: 389 nM | σ (transduction coefficient), β-arr1 recruitment [4]: 0.07 ± 0.05 | Emax ([4]; HEK293, read-out: Emax, β-arr1 recruitment): 63.9 ± 0.8% | Bias factor Gαi vs βarr1 [5]: −0.14 ± 0.07 | Bias factor Gαi vs βarr2 [5]: 0.17 ± 0.08 | Bias factor βarr1 vs βarr2 [5]: 0.32 ± 0.06 | MOPr internalization, dose-dependence and comparison [6]: did not result in a dose-dependent effect and could not be curve-fitted at any timepoint | dissociation half-life t1/2 [9]: 1.25 min | rapid desensitization (loss of VACC inhibition) [7]: limited desensitization | voltage-dependent component of VACC inhibition [8]: predominantly inhibit VACCs by a voltage-dependent mechanism | requirement of βarr1 for full VACC inhibition [10]: require βarr1 to obtain full VACC inhibition | reversal of carrageenan-induced hyperalgesia ([11]; 1 mg/kg i.pl., mice): did not reverse carrageenan-induced hyperalgesia | thermal withdrawal thresholds following i.pl. carrageenan ([11]; 3 mg/kg i.pl., mice): increased withdrawal thresholds following i.pl. carrageenan | time to reach peak levels of effect ([11]; antinociception / anti-hyperalgesia, carrageenan model, 10 min was the earliest timepoint measured): 10 min | sex difference in anti-hyperalgesia ([11]; higher dose (oxycodone 3 mg/kg, NKTR-181 100 mg/kg), male vs female mice): No sex differences were evident | thermal withdrawal thresholds following i.pl. vehicle [12]: increased withdrawal thresholds following i.pl. vehicle | conditioned place preference ([13]; 1 mg/kg i.pl.): did not produce a place preference in either male or female mice | conditioned place preference ([13]; 3 mg/kg i.pl.): produced a place preference in both sexes | carrageenan-induced place aversion [14]: prevented place aversion | number of reinforcers obtained vs saline ([15]; 0.1 mg/kg/infusion): no difference | number of reinforcers obtained vs saline ([15]; 0.01 and 0.032 mg/kg/infusion): higher | total amount of drug infused over the hour-long session ([15]; across the three doses of each drug, rats): increase in the total amount of drug infused across all doses

[D-Ala^2, N-MePhe^4, Gly-ol]-enkephalin (peptide)
Emax (% inhibition) of VACCs in cultured adult mouse DRG neurons, whole-cell patch clamp [16]: 41 % inhibition | IC50 of inhibition of voltage-activated calcium channel currents (VACCs) in cultured adult mouse DRG neurons, whole-cell patch clamp [16]: 228 nM

B1: β-arrestin-1-Renilla Luciferase8 (natural protein, UniProt P49407 1-418, looked up)
chain: MGDKGTRVFKKASPNGKLTVYLGKRDFVDHIDLVDPVDGVVLVDPEYLKERRVYVTLTCAFRYGREDLDVLGLTFRKDLFVANVQSFPPAPEDKKPLTRLQERLIKKLGEHAYPFTFEIPPNLPCSVTLQPGPEDTGKACGVDYEVKAFCAENLEEKIHKRNSVRLVIRKVQYAPERPGPQPTAETTRQFLMSDKPLHLEASLDKEIYYHGEPISVNVHVTNNTNKTVKKIKISVRQYADICLFNTAQYKCPVAMEEADDTVAPSSTFCKVYTLTPFLANNREKRGLALDGKLKHEDTNLASSTLLREGANREILGIIVSYKVKVKLVVSRGGLLGDLASSDVAVELPFTLMHPKPKEEPPHREVPENETPVDTNLIELDTNDDDIVFEDFARQRLKGMKDDKEEEEDGTGSPQLNNR
notes: β-arrestin-1; BRET donor; also called βarr1; β-arr1; source: HEK293, transfected (FuGENE 6), in live cells
LogEC50 of the agonist DAMGO for the recruitment [17]: -6.94 ± 0.09 log M | LogEC50 of the agonist NKTR-181 for the recruitment [17]: -6.45 ± 0.12 log M | LogEC50 of the agonist fentanyl for the recruitment [17]: -8 ± 0.12 log M | LogEC50 of the agonist morphine for the recruitment [17]: -6.3 ± 0.18 log M | LogEC50 of the agonist oxycodone for the recruitment [17]: -6.41 ± 0.12 log M
